Data from US20250197420A1, “MACROCYCLIC COMPOUNDS, COMPOSITIONS, AND METHODS OF USING THEREOF” (Sionna Therapeutics Inc., priority 2022, published 2025).

Experiments:
[1] = molecular target: T1, Purified recombinant NBD1 (Homo sapiens, UniProt P13569); experiment: Aggregation analysis using differential static light scattering (DSLS): thermal stability of NBD1; type: binding; settings: NBD1 0.2 mg/ml; Tagg of compound well minus average Tagg of DMSO control wells
T1 construct: Purified recombinant NBD1 was produced using previously described methods; made in house
In short: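 ΔTagg is compound-well aggregation temperature minus the DMSO-control mean, each Tagg being the inflection point of light scattering measured by DSLS during a 1 °C/min ramp up to 70 °C. The protein was purified NBD1 (0.2 mg/ml) in pH 7.6 buffer containing 2 mM ATP, 5 mM MgCl2 and 1% glycerol.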

[2] = tested on: Primary human bronchial epithelial cells from a ΔF508 homozygous CF donor (CF-HBE cells); experiment: TECC24 recording of CFTR-mediated transepithelial chloride transport, AUC fold over benchmark VX-809 @10 μM; type: cell-based; settings: 48 hours incubation, AUC of forskolin-stimulated IEQ
In short: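 Values are the forskolin-to-inhibitor-172 AUC of equivalent Cl− current, derived from transepithelial voltage and resistance, divided by the VX-809 AUC and binned as A <3, B 3–6, C 6–20. Cells were pre-incubated with compound for 48 h at 36.5 °C; the bath (pH 7.4) received benzamil 10 μM, forskolin 10 μM, then CFTRinh-172 20 μM.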

T1 sequence (P13569 423-646 limits assumed): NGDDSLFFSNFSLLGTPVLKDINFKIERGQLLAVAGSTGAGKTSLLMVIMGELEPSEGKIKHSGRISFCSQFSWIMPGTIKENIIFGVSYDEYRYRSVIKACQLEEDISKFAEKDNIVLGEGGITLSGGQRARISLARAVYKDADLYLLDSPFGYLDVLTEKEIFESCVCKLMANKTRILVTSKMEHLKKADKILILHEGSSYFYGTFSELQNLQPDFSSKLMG

Row | SMILES | DSLS (ΔTagg) [1] | TECC (test agent AUC divided by VX-809 AUC) [2]
1 | CC1(c2cccc(CCC(=O)O)c2)CCCCCC(O)CNC(=O)Cc2c(c(F)cc3[nH]ccc23)Oc2ccc(F)c(c2)-c2ncc1[nH]2 (stereo not drawn) [Compound 108, 3-[3-(24,30-Difluoro-12-hydroxy-6-methyl-15-oxo-26-oxa-3,14,21,32-tetrazapentacyclo[25.3.1.12,5.017,25.018,22]dotriaconta-1(31),2,4,17,19,22,24,27,29-nonaen-6-yl)phenyl]propanoic acid] | C (a value greater than 10 °C and less than or equal to 25 °C is marked “C”) | A (a TECC value less than 3 is marked “A”)
2 | CN1CC(C)(C)CCCC[C@](C)(c2cccc(CC(C)(C)C(=O)O)c2)c2nc(n(C)n2)-c2cc(ccn2)Oc2c(F)cc3[nH]ccc3c2CC1=O [Compound 124, 3-[3-[(6R)-23-fluoro-3,6,11,11,13-pentamethyl-14-oxo-25-oxa-3,4,13,20,29,31-hexazapentacyclo[24.3.1.12,5.016,24.017,21]hentriaconta-1(30),2(31),4,16,18,21,23,26,28-nonaen-6-yl]phenyl]-2,2-dimethyl-propanoic acid] | A (an ΔTagg value less than or equal to 5 °C is marked “A”) | A (a TECC value less than 3 is marked “A”)
3 | CN1CC(C)(C)CCCC(c2cccc(CCC(=O)O)c2)c2cnc([nH]2)-c2cc(ccc2F)Oc2c(F)cc3[nH]ccc3c2CCC1=O (stereo not drawn) [Compound 41, 3-[3-(23,29-Difluoro-10,10,12-trimethyl-13-oxo-25-oxa-3,12,20,31-tetrazapentacyclo[24.3.1.12,5.016,24.017,21]hentriaconta-1(30),2,4,16,18,21,23,26,28-nonaen-6-yl)phenyl]propanoic acid] | B (a value above 5 °C and less than or equal to 10 °C is marked “B”) | B (a value between 3 and 6 is marked “B”)
4 | CC1(C)CCCCC(C)(c2cccc(CCC(=O)O)c2)c2cnc([nH]2)-c2cc(ccc2F)Oc2c(F)cc3[nH]ccc3c2CCC(=O)NC1 (single isomer, unassigned) [Compound 46B, 3-[3-(24,30-difluoro-6,11,11-trimethyl-14-oxo-26-oxa-3,13,21,32-tetrazapentacyclo[25.3.1.12,5.017,25.018,22]dotriaconta-1(30),2,4,17(25),18(22),19,23,27(31),28-nonaen-6-yl)phenyl]propanoic acid] | C (a value greater than 10 °C and less than or equal to 25 °C is marked “C”) | A (a TECC value less than 3 is marked “A”)
5 | CC(Cc1cccc(C2(C)CCCCC(C)(C)NC(=O)OCc3c(c(F)cc4[nH]ccc34)Oc3ccc(F)c(c3)-c3nc2nn3C)c1)C(=O)O (single isomer, unassigned) [Compound 101A, 3-[3-(23,29-difluoro-3,6,11,11-tetramethyl-13-oxo-14,25-dioxa-3,4,12,20,31-pentazapentacyclo[24.3.1.12,5.016,24.017,21]-hentriaconta-1(30),2(31),4,16,18,21,23,26,28-nonaen-6-yl)phenyl]-2-methyl-propanoic acid] | C (a value greater than 10 °C and less than or equal to 25 °C is marked “C”) | B (a value between 3 and 6 is marked “B”)
6 | CCOC(=O)Cc1cccc(C2(C)CCCC(C)(C)CN(C)C(=O)CCc3c(c(F)cc4[nH]ccc34)Oc3ccc(F)c(c3)-c3ncc2[nH]3)c1 (single isomer, unassigned) [Compound 64B, ethyl 2-[3-(23,29-difluoro-6,10,10,12-tetramethyl-13-oxo-25-oxa-3,12,20,31-tetrazapentacyclo-[24.3.1.12,5.016,24.017,21]hentriaconta-1(30),2,4,16,18,21,23,26,28-nonaen-6-yl)phenyl]acetate] | A (an ΔTagg value less than or equal to 5 °C is marked “A”) | B (a value between 3 and 6 is marked “B”)
7 | CC1(C)CCCCC(C)(c2cccc(CCC(=O)O)c2)c2cnc([nH]2)-c2cc(ccc2F)Oc2c(F)cc3[nH]ccc3c2COC(=O)N1 (single isomer, unassigned) [Compound 93A, 3-[3-(23,29-difluoro-6,11,11-trimethyl-13-oxo-14,25-dioxa-3,12,20,31-tetrazapentacyclo[24.3.1.12,5.016,24.017,21]hentriaconta-1(30),2,4,16,18,21,23,26,28-nonaen-6-yl)phenyl]propanoic acid] | A (an ΔTagg value less than or equal to 5 °C is marked “A”) | B (a value between 3 and 6 is marked “B”)
8 | CC1(c2cccc(CCC(=O)O)c2)CCCCCC(=O)NCC(O)Cc2c(c(F)cc3[nH]ccc23)Oc2ccc(F)c(c2)-c2ncc1[nH]2 (stereo not drawn) [Compound 110, 3-[3-(24,30-Difluoro-15-hydroxy-6-methyl-12-oxo-26-oxa-3,13,21,32-tetrazapentacyclo[25.3.1.12,5.017,25.018,22]dotriaconta-1(31),2,4,17,19,22,24,27,29-nonaen-6-yl)phenyl]propanoic acid] | C (a value greater than 10 °C and less than or equal to 25 °C is marked “C”) | B (a value between 3 and 6 is marked “B”)
9 | COCCONC(=O)CCc1cccc(C2(C)CCCC(C)(C)CN(C)C(=O)CCc3c(c(F)cc4[nH]ccc34)Oc3ccc(F)c(c3)-c3ncc2[nH]3)c1 (single isomer, unassigned) [Compound 57, 3-[3-(23,29-difluoro-6,10,10,12-tetramethyl-13-oxo-25-oxa-3,12,20,31-tetrazapentacyclo[24.3.1.12,5.016,24.017,21]hentriaconta-1(30),2,4,16,18,21,23,26,28-nonaen-6-yl)phenyl]-N-(2-methoxyethoxy)propanamide] | B (a value above 5 °C and less than or equal to 10 °C is marked “B”) | B (a value between 3 and 6 is marked “B”)
10 | CC1(C)CCCCC(C)(c2ccccc2)c2cnc([nH]2)-c2cc(ccc2F)Oc2c(F)cc3[nH]ccc3c2COC(=O)N1 (stereo not drawn) [Compound 94, 23,29-Difluoro-6,11,11-trimethyl-6-phenyl-14,25-dioxa-3,12,20,31-tetrazapentacyclo[24.3.1.12,5.016,24.017,21]hentriaconta-1(30),2,4,16,18,21,23,26,28-nonaen-13-one] | B (a value above 5 °C and less than or equal to 10 °C is marked “B”) | A (a TECC value less than 3 is marked “A”)
11 | C[C@@H](Cc1cccc(C2(C)CCCC(C)(C)N(C)S(=O)(=O)CCc3c(c(F)cc4[nH]ccc34)Oc3ccc(F)c(c3)-c3nc2nn3C)c1)C(=O)O (single isomer, unassigned) [Compound 117A] | B (a value above 5 °C and less than or equal to 10 °C is marked “B”) | A (a TECC value less than 3 is marked “A”)
12 | O=C(O)CCc1cccc(C2CCCCCNC(=O)OCc3c(c(F)cc4[nH]ccc34)Oc3ccc(F)c(c3)-c3ncc2[nH]3)c1F (stereo not drawn) [Compound 85, 3-[3-(23,29-Difluoro-13-oxo-14,25-dioxa-3,12,20,31-tetrazapentacyclo[24.3.1.12,5.016,24.017,21]hentriaconta-1(30),2,4,16,18,21,23,26,28-nonaen-6-yl)-2-fluoro-phenyl]propanoic acid] | C (a value greater than 10 °C and less than or equal to 25 °C is marked “C”) | B (a value between 3 and 6 is marked “B”)
13 | CCOC(=O)Cc1cccc(C2(C)CCCC(C)(C)CN(C)C(=O)CCc3c(c(F)cc4[nH]ccc34)Oc3ccc(F)c(c3)-c3ncc2[nH]3)c1 (single isomer, unassigned) [Compound 64A, ethyl 2-[3-(23,29-difluoro-6,10,10,12-tetramethyl-13-oxo-25-oxa-3,12,20,31-tetrazapentacyclo-[24.3.1.12,5.016,24.017,21]hentriaconta-1(30),2,4,16,18,21,23,26,28-nonaen-6-yl)phenyl]acetate] | A (an ΔTagg value less than or equal to 5 °C is marked “A”) | A (a TECC value less than 3 is marked “A”)
14 | CN1CC(C)(C)CCC(C)(c2cccc(CCC(=O)O)c2)c2cnc([nH]2)-c2cc(ccc2F)Oc2c(F)cc3[nH]ccc3c2CCC1=O (stereo not drawn) [Compound 33, 3-[3-(22,28-Difluoro-6,9,9,11-tetramethyl-12-oxo-24-oxa-3,11,19,30-tetrazapentacyclo[23.3.1.12,5.015,23.016,20]triaconta-1(29),2,4,15,17,20,22,25,27-nonaen-6-yl)phenyl]propanoic acid] | B (a value above 5 °C and less than or equal to 10 °C is marked “B”) | A (a TECC value less than 3 is marked “A”)
15 | CC1(c2cccc(CCC(=O)O)c2)CCCC(=O)CNC(=O)CCc2c(c(F)cc3[nH]ccc23)Oc2ccc(F)c(c2)-c2ncc1[nH]2 (stereo not drawn) [Compound 107, 3-[3-(23,29-Difluoro-6-methyl-10,13-dioxo-25-oxa-3,12,20,31-tetrazapentacyclo[24.3.1.12,5.016,24.017,21]hentriaconta-1(30),2,4,16,18,21,23,26,28-nonaen-6-yl)phenyl]propanoic acid] | C (a value greater than 10 °C and less than or equal to 25 °C is marked “C”) | B (a value between 3 and 6 is marked “B”)
